Reference: US10336762B2 (priority 2017, dated 2019)

How the values were obtained:
TNFα = test: cells; type: cell-based, human; conditions: Homo sapiens, Monocyte, LPS-stimulated human monocytes, TNFα content; read-out: EC50 TNF
IRAK4 enzyme = IRAK4 enzyme (Homo sapiens (Human), UniProt Q9NWZ3); test: biochemical; type: biochemical; conditions: IRAK4 enzyme, TR-FRET, 500 μM ATP
IRAK4 enzyme, sequence (Q9NWZ3 whole entry): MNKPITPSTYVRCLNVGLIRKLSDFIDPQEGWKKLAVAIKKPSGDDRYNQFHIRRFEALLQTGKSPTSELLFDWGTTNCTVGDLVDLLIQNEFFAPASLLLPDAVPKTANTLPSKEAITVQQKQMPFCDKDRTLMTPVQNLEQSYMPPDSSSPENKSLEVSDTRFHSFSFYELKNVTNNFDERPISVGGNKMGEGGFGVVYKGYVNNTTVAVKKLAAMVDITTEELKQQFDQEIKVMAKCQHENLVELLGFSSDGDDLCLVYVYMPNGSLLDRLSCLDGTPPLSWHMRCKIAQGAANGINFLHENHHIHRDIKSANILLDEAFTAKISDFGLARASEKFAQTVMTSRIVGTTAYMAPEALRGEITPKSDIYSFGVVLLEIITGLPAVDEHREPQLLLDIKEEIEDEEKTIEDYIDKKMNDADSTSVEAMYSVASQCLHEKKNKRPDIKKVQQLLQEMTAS

Compound	EC50 (TNFα) [nM]	IC50 (IRAK4 enzyme) [nM]
CN(C)C1CCC(NC(=O)c2cnc(-c3ccc4cc(C#N)cnn34)cc2N[C@H]2CCC[C@@H](O)C2)CC1 (stereo partly drawn) [Example 366, 6-(3-cyanopyrrolo[1,2-b]pyridazin-7-yl)-N-((1r,4S)-4-(dimethylamino)cyclohexyl)-4-(((1S,3R)-3-hydroxycyclohexyl)amino) nicotinamide]	162	1
CC(C)(O)[C@H](F)CNC(=O)c1cnc(-c2ccc3cc(C#N)cnn23)cc1NC1CCC(=O)NC1 (stereo partly drawn) [Example 367, 6-(3-cyanopyrrolo[1,2-b]pyridazin-7-yl)-N-((R)-2-fluoro-3-hydroxy-3-methylbutyl)-4-((6-oxopiperidin-3-yl)amino)nicotinamide]	1560	3
CC(C)(O)[C@H](F)CNC(=O)c1cnc(-c2ccc3cc(C#N)cnn23)cc1N[C@H]1CCC(=O)NC1 [Example 368, 6-(3-cyanopyrrolo[1,2-b]pyridazin-7-yl)-N-((R)-2-fluoro-3-hydroxy-3-methylbutyl)-4-(((S)-6-oxopiperidin-3-yl)amino)nicotinamide]	2890	5
CC(C)NC(=O)c1cnc(-c2ccc3cc(C#N)cnn23)cc1NC(C)C [Example 369, 6-(3-cyanopyrrolo[1,2-b]pyridazin-7-yl)-N-isopropyl-4-(isopropylamino)nicotinamide]	922	16
CC(C)(O)[C@H](F)CNC(=O)c1cnc(-c2ccc3cc(C#N)cnn23)cc1Nc1ccn(Cc2ccccc2)n1 [Example 370, (R)-4-((1-benzyl-1H-pyrazol-3-yl)amino)-6-(3-cyanopyrrolo[1,2-b]pyridazin-7-yl)-N-(2-fluoro-3-hydroxy-3-methylbutyl)nicotinamide]	10	1
Cn1ccc(Nc2cc(-c3ccc4cc(C#N)cnn34)ncc2C(=O)NC[C@@H](F)C(C)(C)O)n1 [Example 371, (R)-6-(3-cyanopyrrolo[1,2-b]pyridazin-7-yl)-N-(2-fluoro-3-hydroxy-3-methylbutyl)-4-((1-methyl-1H-pyrazol-3-yl)amino)nicotinamide]	61	< 1
CC(C)(O)[C@H](F)CNC(=O)c1cnc(-c2ccc3cc(C#N)cnn23)cc1NC12CC(C(N)=O)(C1)C2 [Example 373, (R)-4-((3-carbamoylbicyclo[1.1.1]pentan-1-yl)amino)-6-(3-cyanopyrrolo[1,2-b]pyridazin-7-yl)-N-(2-fluoro-3-hydroxy-3-methylbutyl)nicotinamide]	141	< 1
CC(C)(O)[C@H](F)CNC(=O)c1cnc(-c2ccc3cc(C#N)cnn23)cc1Nc1nc(C(F)(F)F)cs1 [Example 374, (R)-6-(3-cyanopyrrolo[1,2-b]pyridazin-7-yl)-N-(2-fluoro-3-hydroxy-3-methylbutyl)-4-((4-(trifluoromethyl)thiazol-2-yl)amino)nicotinamide]	327	1
CC(C)(O)[C@H](F)CNC(=O)c1cnc(-c2ccc3cc(C#N)cnn23)cc1Nc1nccs1 [Example 375, (R)-6-(3-cyanopyrrolo[1,2-b]pyridazin-7-yl)-N-(2-fluoro-3-hydroxy-3-methylbutyl)-4-(thiazol-2-ylamino)nicotinamide]	110	1
COc1ccc2nc(Nc3cc(-c4ccc5cc(C#N)cnn45)ncc3C(=O)NC[C@@H](F)C(C)(C)O)sc2c1 [Example 376, (R)-6-(3-cyanopyrrolo[1,2-b]pyridazin-7-yl)-N-(2-fluoro-3-hydroxy-3-methylbutyl)-4-((6-methoxybenzo[d]thiazol-2-yl)amino)nicotinamide]	736	2
CC(C)(O)[C@H](F)CNC(=O)c1cnc(-c2ccc3cc(C#N)cnn23)cc1NC12CC(C#N)(C1)C2 [Example 378, (R)-4-((3-cyano-bicyclo[1.1.1]pentan-1-yl)amino)-6-(3-cyano-pyrrolo[1,2-b]pyridazin-7-yl)-N-(2-fluoro-3-hydroxy-3-methylbutyl) nicotinamide]	38	< 1
CC(C)Nc1cc(-c2ccc3cc(C#N)cnn23)ncc1C(=O)NC12CC(C#N)(C1)C2 [Example 380, N-(3-cyanobicyclo[1.1.1]pentan-1-yl)-6-(3-cyano-pyrrolo[1,2-b]pyridazin-7-yl)-4-(isopropylamino) nicotinamide]	773	15
CC(C)(O)[C@H](F)CNC(=O)c1cnc(-c2ccc3cc(C#N)cnn23)cc1Nc1ccc(C(N)=O)cc1 [Example 381]	18	< 1
CC(C)(O)[C@H](F)CNC(=O)c1cnc(-c2ccc3cc(C#N)cnn23)cc1Nc1ccccc1C(N)=O [Example 382, (R)-4-((2-carbamoyl-phenyl)amino)-6-(3-cyanopyrrolo[1,2-b]pyridazin-7-yl)-N-(2-fluoro-3-hydroxy-3-methylbutyl)nicotinamide]	586	10
CC(C)(O)[C@H](F)CNC(=O)c1cnc(-c2ccc3cc(C#N)cnn23)cc1Nc1cccc(C(N)=O)c1 [Example 383, (R)-4-((3-carbamoyl-phenyl)amino)-6-(3-cyanopyrrolo[1,2-b]pyridazin-7-yl)-N-(2-fluoro-3-hydroxy-3-methylbutyl)nicotinamide]	144	< 1
CC(C)(O)[C@H](F)CNC(=O)c1cnc(-c2ccc3cc(C#N)cnn23)cc1Nc1cccc(F)c1 [Example 384, (R)-6-(3-cyanopyrrolo[1,2-b]pyridazin-7-yl)-N-(2-fluoro-3-hydroxy-3-methylbutyl)-4-((3-fluorophenyl)amino) nicotinamide]	129	1
CC(C)(O)[C@H](F)CNC(=O)c1cnc(-c2ccc3cc(C#N)cnn23)cc1Nc1ccc(-n2ccccc2=O)cc1 [Example 385, (R)-6-(3-cyanopyrrolo[1,2-b]pyridazin-7-yl)-N-(2-fluoro-3-hydroxy-3-methylbutyl)-4-((4-(2-oxopyridin-1(2H)-yl)phenyl)amino)nicotinamide]	36	< 1
N#Cc1ccc(NC(=O)c2cnc(-c3ccc4cc(C#N)cnn34)cc2N[C@H]2CCC[C@@H](O)C2)nc1 [Example 386, 6-(3-cyanopyrrolo[1,2-b]pyridazin-7-yl)-N-(5-cyanopyridin-2-yl)-4-(((1S,3R)-3-hydroxycyclohexyl)amino)nicotinamide]	2380	8
COC(=O)NC1CCC(NC(=O)c2cnc(-c3ccc4cc(C#N)cnn34)cc2N[C@H]2CCCC(O)C2)CC1 (stereo partly drawn) [Example 387, methyl ((1S,4r)-4-(6-(3-cyanopyrrolo[1,2-b]pyridazin-7-yl)-4-(((1S,3R)-3-hydroxy-cyclohexyl)amino)nicotinamido)cyclohexyl)carbamate]	112	2
C[C@]1(O)C[C@@H](Nc2cc(-c3ccc4cc(C#N)cnn34)ncc2C(=O)NCC#N)C1 [Example 388, N-(cyanomethyl)-6-(3-cyanopyrrolo[1,2-b]pyridazin-7-yl)-4-(((1s,3s)-3-hydroxy-3-methylcyclobutyl)amino) nicotinamide]	96	1
C[C@]1(O)C[C@H](Nc2cc(-c3ccc4cc(C#N)cnn34)ncc2C(=O)NCC#N)C1 [Example 389, N-(cyanomethyl)-6-(3-cyanopyrrolo[1,2-b]pyridazin-7-yl)-4-(((1r,3r)-3-hydroxy-3-methylcyclobutyl)amino) nicotinamide]	137	3
N#Cc1cnn2c(-c3cc(N[C@H]4CC[C@H](N5CCOC5=O)CC4)c(C(=O)NCC(N)=O)cn3)ccc2c1 [Example 390, N-(2-amino-2-oxoethyl)-6-(3-cyanopyrrolo[1,2-b]pyridazin-7-yl)-4-(((1r,4r)-4-(2-oxooxazolidin-3-yl)cyclohexyl)amino) nicotinamide]	> 10000	6
N#CCNC(=O)c1cnc(-c2ccc3cc(C#N)cnn23)cc1N[C@H]1CC[C@H](N2CCOC2=O)CC1 [Example 391, N-(cyanomethyl)-6-(3-cyanopyrrolo[1,2-b]pyridazin-7-yl)-4-(((1r,4r)-4-(2-oxooxazolidin-3-yl)cyclohexyl)amino) nicotinamide]	33	< 1
CC(C)(O)[C@H](F)CNC(=O)c1cnc(-c2ccc3cc(C#N)cnn23)cc1N[C@H]1CC[C@H](N2CCOC2=O)CC1 [Example 392, 6-(3-cyanopyrrolo[1,2-b]pyridazin-7-yl)-N-((R)-2-fluoro-3-hydroxy-3-methylbutyl)-4-(((1r,4R)-4-(2-oxooxazolidin-3-yl)cyclohexyl)amino) nicotinamide]	50	< 1
CC(C)(O)[C@H](F)CNC(=O)c1cnc(-c2ccc3cc(C#N)cnn23)cc1NC12CCC(C(=O)N3CC(C(F)F)C3)(CC1)CC2 [Example 393, (R)-6-(3-cyanopyrrolo[1,2-b]pyridazin-7-yl)-4-((4-(3-(difluoromethyl)azetidine-1-carbonyl)bicyclo[2.2.2]octan-1-yl)amino)-N-(2-fluoro-3-hydroxy-3-methylbutyl)nicotinamide]	44	< 1
CC1(F)CN(C(=O)C23CCC(Nc4cc(-c5ccc6cc(C#N)cnn56)ncc4C(=O)NC[C@@H](F)C(C)(C)O)(CC2)CC3)C1 [Example 394, (R)-6-(3-cyanopyrrolo[1,2-b]pyridazin-7-yl)-N-(2-fluoro-3-hydroxy-3-methylbutyl)-4-((4-(3-fluoro-3-methylazetidine-1-carbonyl)bicyclo[2.2.2]octan-1-yl)amino) nicotinamide]	68	1
CC(C)(O)[C@H](F)CNC(=O)c1cnc(-c2ccc3cc(C#N)cnn23)cc1NC12CCC(C(=O)N3CCN(C4COC4)CC3)(CC1)CC2 [Example 395, (R)-6-(3-cyanopyrrolo[1,2-b]pyridazin-7-yl)-N-(2-fluoro-3-hydroxy-3-methylbutyl)-4-((4-(4-(oxetan-3-yl)piperazine-1-carbonyl)bicyclo[2.2.2]octan-1-yl)amino) nicotinamide]	256	3
